Results from patent US9375457B2, “Composition comprising Rhizoma coptidis, Cortex phellodendri and Fructus gardeniae and for treating neurodegenerative diseases” (Hong Kong Baptist University, priority 2013, dated 2016).

Assays:
[1] = system: N2a-SwedAPP cells; assay: MTT viability assay in N2a-SwedAPP cells; format: cell-based, murine; conditions: mouse, 48 h
Method: (§1) N2a-SwedAPP cells were obtained from Dr. Gopal Thinakaran (University of Chicago, Chicago, Ill., USA). N2a-SwedAPP cells were cultured in Dulbecco's modified Eagle's medium (DMEM) and OPTI-MEM medium in a 1:1 ratio with 5% FBS, 50 μg/mL penicillin, 50 μg/mL streptomycin and 200 μg/mL G418 as previously described in Thinakaran G, Teplow D B, Siman R, Greenberg B, Sisodia S S (1996) Metabolism of the “Swedish” amyloid precursor protein variant in neuro2a (N2a) cells. J Biol Chem 271: 9390-9397. N2a-SwedAPP cells were incubated at 37° C. in a 5% CO2/95% humidity incubator. Cells were seeded 24 hours prior to the treatments. When growth reached close to 90% of confluence, cells were transferred into DMEM with 1% FBS for loading extracts. The final concentration of DMSO in all experiments was 0.1%, and this concentration caused no cytotoxicity.
For the viability assay, N2a-SwedAPP cells were seeded in a 96-well plate (7000 cells/well and 5000 cells/well). […] Finally, optical intensity was measured using a BioRad plate reader at 570 nm and a reference of 620 nm. […]
N2a-SwedishAPP cells are widely used as a cellular model of Alzheimer's disease, because they express a high level of APP and Aβ. The effects of HLJDT and its components on viability of N2SwedAPP cells are monitored by using the MTT assay. […]

[2] = system: APP processing (F1-APP, pAPPThr668, CTFs, sAPPα, sAPPβ-sw) in N2a-SwedAPP cells; assay: Western blot of APP metabolic products in N2a-SwedAPP cells; format: cell-based, murine; parameters: key to Fl-APP (overall influence) / CTFs (overall influence) / sAPPα (overall influence) / sAPPβ (overall influence): ↓ decreased; ↑ increased; ? unchanged
Method: as §1
To detect the levels of APP metabolic products, the cell lysates and the conditioned media were prepared as described in Durairajan S S K, Liu L F, Lu J H, Koo I, Maruyama K, Chung S K, Huang J D, Li M. (2011) Stimulation of non-amyloidogenic processing of amyloid-β protein precursor by cryptotanshinone involves activation and translocation of ADAM10 and PKC-α. J Alzheimer's Dis 25: 245-262, with minor modification. N2a-SwedAPP cells were seeded at a density of 4×10^5/mL in DMEM medium in a 6-well plate and cultured for 1 day. After transfer, cells were treated with different doses of RC, CP, FG and RS for 48 hours, then the extracellular media were collected for detection of sAPPα and sAPPβ-sw, and cells were harvested to quantify F1-APP and β-actin by Western blot analysis, as described previously by Durairajan et al. For intracellular APP, APP-CTFs and Aβ preparation, cells were washed with ice-cold PBS twice and solubilized in ice-cold RIPA buffer with protease inhibitor cocktail added. Lysates were collected and centrifuged at 16,000×g for 15 minutes at 4° C. The resulting supernatants were collected, and their protein concentrations were determined with bicinchoninic acid (BCA) protein assay reagent (Thermo Scientific, IL, USA). For sAPPα and sAPPβ-sw detection, the conditioned media are collected and frozen in liquid nitrogen, subjected to lyophilization at −40° C. under vacuum of 105 μbar for 2 days in order to remove all liquid. The conditioned media were standardized to total cell lysate protein.
For Western blot analysis from cell culture or mouse brain, 10-30 μg total protein is separated on 10% and 15% SDS-PAGE gels and blotted onto PVDF membranes for the detection of full length APP (F1-APP), CTFs, sAPPα, sAPPβ-sw, 3-actin and phosphorylated APP (pAPPThr668). After blocking with 5% skimmed milk, the blots are incubated with primary antibodies overnight at 4° C. with shaking. Blots are washed and incubated with HRP-conjugated secondary antibodies. The goat anti-mouse IgG is used when the primary antibody is 6E10 (1:1000), sAPPβ-sw (1:100), or anti-β-actin (1:5000), and the goat anti-rabbit IgG is used when the primary antibody is anti-CT15 (1:5000) or pAPPThr668 (1:1000). After incubation with HRP-conjugated secondary antibody, immunoblots are treated with ECL and developed using X-ray films (Fujifilm). Films are scanned, and the band intensity is analyzed using Image J software (NIH Image).
Stripped CT15 and 6E10 probed membranes are reincubated with pAPPThr668 and sAPPβ-sw 6A1 antibodies, respectively.
Western blotting of N2a-SwedAPP cells is used to test differences in the processing of Swedish mutant APP by HLJDT components. Several antibodies are used in Western blot analysis: CT15 recognizes full length APP (F1-APP), 6E10 identifies only α-secretase-cleaved APP i.e sAPPα, and the sAPPβ-sw specific for β-secretase cleavage of Swedish mutant APP.

[3] = system: intracellular Aβ1-40 and Aβ1-42 in N2a-SwedAPP cells; assay: Sandwich ELISA of intracellular Aβ in N2a-SwedAPP cells; format: cell-based, murine; parameters: key to Aβs (overall influence): ↓ decreased; ↑ increased; ? unchanged
Method: N2a-SwedAPP cells were seeded at a density of 4×10^5/mL in DMEM medium in a 6-well plate and cultured for 1 day. After transfer, cells were treated with different doses of RC, CP, FG and RS for 48 hours, then the extracellular media were collected for detection of sAPPα and sAPPβ-sw, and cells were harvested to quantify F1-APP and β-actin by Western blot analysis, as described previously by Durairajan et al. For intracellular APP, APP-CTFs and Aβ preparation, cells were washed with ice-cold PBS twice and solubilized in ice-cold RIPA buffer with protease inhibitor cocktail added. Lysates were collected and centrifuged at 16,000×g for 15 minutes at 4° C. The resulting supernatants were collected, and their protein concentrations were determined with bicinchoninic acid (BCA) protein assay reagent (Thermo Scientific, IL, USA). […] The conditioned media were standardized to total cell lysate protein.
The levels of intracellular Aβ1-40 and Aβ1-42 are quantified by using a sandwich ELISA as previously described by Durairajan et al., 2011 with minor modification. Equal amounts of cell or brain lysates are used for Aβ quantification by sandwich ELISA. The monoclonal antibody 6E10 is used as the capture antibody by adding to ELISA plates (0.2 μg diluted in 0.1 M Na2CO3 (pH 9.6) per well) and incubated overnight at 4° C. The plates are washed with PBS (0.05% Tween 20) and blocked with 4% BlockAce (Serotec, Raleigh, N.C., USA) for 2 hours at room temperature. Equilibrated protein lysates from each treatment (a 100 μL volume is adjusted in all treatment groups by using PBS) are applied in duplicate and incubated at room temperature for 2 hours with constant rotation at 30 rpm. Biotinylated monoclonal anti-Aβ40 5C3 (50 ng per well) and biotinylated monoclonal 8G7 (50 ng per well) antibodies are used for detection of Aβ1-40 and Aβ1-42, respectively, and are diluted in 1% BlockAce and incubated for 2 hours at room temperature. Plates are thoroughly washed with PBS (0.05% Tween 20), and streptavidin conjugated HRP is added for 1 hour at room temperature. Finally the plates are washed four times with PBST before adding the substrate TMB for 30 minutes. Absorbance at 450 nm is measured in duplicate wells after addition of 2 M H2SO4. All ELISA experimental data are from three different days. Synthetic Aβ40 and Aβ42 peptides are used for construction of calibration curves, and Aβ is measured in lysates.

[4] = system: TgCRND8 mice; conditions: chronic administration; cited from earlier work

## COc1ccc2cc3[n+](cc2c1OC)CCc1cc2c(cc1-3)OCO2 [berberine]
[1]
  non-toxic concentration (highest concentration that shows greater than 90% cell viability): 12.5 µM
[2]; 6.25 μM, 48 hours
  reduction of sAPPα level: 30%
  reduction of sAPPβ-sw level: 45%
[2]; 12.5 μM, 48 hours
  reduction of CTFs level: 67%
  reduction of F1-APP level: 54%
  reduction of pAPPThr668 level: 42%
  reduction of sAPPα level: 58%
  reduction of sAPPβ-sw level: 70%
[2]; N2a-SwedAPP cells
  CTFs (overall influence): ↓
  Fl-APP (overall influence): ↓
  sAPPα (overall influence): ↓
  sAPPβ (overall influence): ↓
[3]; 12.5 μM, 48 h
  reduction of intracellular Aβ1-40: 37%
  reduction of intracellular Aβ1-42: 25%
[3]; N2a-SwedAPP cells
  Aβs (overall influence): ↓
[4]
  effect on Aβ pathology, gliosis and cognitive impairments: significantly reduce
